Results published in patent publication US12502434B2, “Compound comprising EZH2 inhibitor and E3 ligase binder and pharmaceutical composition for preventing or treating EZH2-associated disease comprising same as active ingredient” (DAEGU-GYEONGBUK MEDICAL INNOVATION FOUNDATION, priority 2019, dated 2025).
Like-named read-outs stand apart in the source and are kept apart here.

Biological target: T1, EZH2 protein in LS174T cells (Homo sapiens, UniProt Q15910)
T1 construct: endogenous in cells; host or cells: LS174T
T1 sequence (Q15910 whole entry): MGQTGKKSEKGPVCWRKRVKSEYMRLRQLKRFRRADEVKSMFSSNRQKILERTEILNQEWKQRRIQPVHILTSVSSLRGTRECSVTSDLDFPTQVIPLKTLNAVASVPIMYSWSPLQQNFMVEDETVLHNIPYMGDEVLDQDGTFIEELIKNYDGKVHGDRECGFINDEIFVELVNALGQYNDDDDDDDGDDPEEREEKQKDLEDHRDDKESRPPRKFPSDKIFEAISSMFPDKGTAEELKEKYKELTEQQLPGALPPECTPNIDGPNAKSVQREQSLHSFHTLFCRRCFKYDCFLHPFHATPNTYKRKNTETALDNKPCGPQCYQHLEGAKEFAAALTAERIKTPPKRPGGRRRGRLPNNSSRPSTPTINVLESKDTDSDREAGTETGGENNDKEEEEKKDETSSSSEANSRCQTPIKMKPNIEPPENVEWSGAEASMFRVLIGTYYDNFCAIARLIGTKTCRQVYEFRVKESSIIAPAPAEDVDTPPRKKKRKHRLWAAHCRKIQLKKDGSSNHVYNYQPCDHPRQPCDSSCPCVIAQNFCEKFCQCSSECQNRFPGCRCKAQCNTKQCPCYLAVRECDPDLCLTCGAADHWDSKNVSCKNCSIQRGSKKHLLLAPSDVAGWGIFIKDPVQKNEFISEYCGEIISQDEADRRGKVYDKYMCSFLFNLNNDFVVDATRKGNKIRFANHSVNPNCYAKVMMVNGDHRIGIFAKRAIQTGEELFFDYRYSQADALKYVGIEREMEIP
T1 sequence (O75530 whole entry partner): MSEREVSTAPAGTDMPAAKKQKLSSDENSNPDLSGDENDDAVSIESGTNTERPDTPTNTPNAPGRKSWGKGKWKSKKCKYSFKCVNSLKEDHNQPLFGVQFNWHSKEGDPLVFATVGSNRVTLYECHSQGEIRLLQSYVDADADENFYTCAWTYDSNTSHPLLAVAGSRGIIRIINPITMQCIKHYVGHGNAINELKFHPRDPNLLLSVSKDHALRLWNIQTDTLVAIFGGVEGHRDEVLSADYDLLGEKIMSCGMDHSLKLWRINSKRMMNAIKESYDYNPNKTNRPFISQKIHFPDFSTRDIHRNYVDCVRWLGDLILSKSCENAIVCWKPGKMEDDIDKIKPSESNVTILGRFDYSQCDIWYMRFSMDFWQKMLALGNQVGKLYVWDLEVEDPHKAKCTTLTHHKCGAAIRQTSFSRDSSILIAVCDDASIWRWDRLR
T1 sequence (Q15022 whole entry partner): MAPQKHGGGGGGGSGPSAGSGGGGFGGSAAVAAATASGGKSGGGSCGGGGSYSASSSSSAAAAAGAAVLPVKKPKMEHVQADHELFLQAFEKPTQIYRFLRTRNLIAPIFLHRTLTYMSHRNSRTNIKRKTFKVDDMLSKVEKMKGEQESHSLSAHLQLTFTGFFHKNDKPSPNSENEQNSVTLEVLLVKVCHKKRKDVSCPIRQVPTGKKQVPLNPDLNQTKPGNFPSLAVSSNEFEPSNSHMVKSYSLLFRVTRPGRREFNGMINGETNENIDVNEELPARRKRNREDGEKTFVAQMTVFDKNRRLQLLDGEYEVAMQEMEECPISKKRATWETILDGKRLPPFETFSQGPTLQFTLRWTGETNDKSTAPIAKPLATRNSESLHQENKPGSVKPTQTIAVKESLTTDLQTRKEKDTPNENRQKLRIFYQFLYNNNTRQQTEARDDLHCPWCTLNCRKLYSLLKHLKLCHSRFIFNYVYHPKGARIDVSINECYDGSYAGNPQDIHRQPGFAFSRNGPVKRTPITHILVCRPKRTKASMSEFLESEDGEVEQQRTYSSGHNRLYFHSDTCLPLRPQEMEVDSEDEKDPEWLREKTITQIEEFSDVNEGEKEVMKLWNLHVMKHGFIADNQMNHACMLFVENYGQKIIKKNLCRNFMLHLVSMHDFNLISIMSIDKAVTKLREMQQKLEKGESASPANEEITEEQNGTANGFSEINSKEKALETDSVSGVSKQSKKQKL
Assay: Proteolytic effect in colorectal cancer cells (Western blotting)
Type: cell-based
Experimental: After 72 hours of the treatment, the cells were collected and lysed using RIPA buffer (50 mM Tris, pH 7.5, 150 mM NaCl, 1% Triton X-100, 0.1% SDS, […], 0.5% deoxycholate, and protease inhibitor cocktail), followed by sonication (30 sec on/30 sec off, 5 cycles) to prepare a cell lysate.

[1] = EZH2 protein, LS174T cells, 1 μM, 72 hours
[2] = EZH2 protein, LS174T cells, 1 uM, 72 hours, Western blotting

Row | Structure (SMILES) | Grade (percent value of the protein degradation when treated with 1 μM) [1] | %, degradation at 1 uM [2] | EZH2 proteolytic effect by Western blotting (figure, in words) (FIGS. 1 to 5) | effect of degrading EZH2 protein when treated to colorectal cancer cells (in words) (LS174T cells) | %, degradation at 1 uM | Grade (percent value of the protein degradation when treated with 1 μM)
1 | CCN(c1cc(-c2ccc(CN3CCN(CC(=O)N4CCC5(CCN(CCCCNc6cccc7c6C(=O)N(C6CCC(=O)NC6=O)C7=O)CC5)CC4)CC3)cc2)cc(C(=O)NCc2c(C)cc(C)[nH]c2=O)c1C)C1CCOCC1 (centres unmarked) [Example 33, N-((4,6-dimethyl-2-oxo-1,2-dihydropyridine-3-yl)methyl)-4′-((4-(2-(9-(4-((2-(2,6-dioxopiperidine-3-yl)-1,3-dioxoisoindoline-4-yl)amino)butyl)-3,9-diazaspiro[5.5]undecane-3-yl)-2-oxoethyl)piperazine-1-yl)methyl)-5-(ethyl(tetrahydro-2H-pyran-4-yl)amino)-4-methyl-[1,1′-biphenyl]-3-carboxamide] | A (>75%) | 80.85% | confirming the EZH2 proteolytic effect | excellent effects | – | –
2 | CCN(c1cc(-c2ccc(CN3CCN(CC(=O)NCCCOCCN[C@H](C(=O)N4C[C@H](O)C[C@H]4C(=O)NCc4ccc(-c5scnc5C)cc4)C(C)(C)C)CC3)cc2)cc(C(=O)NCc2c(C)cc(C)[nH]c2=O)c1C)C1CCOCC1 [Example 39, (2S,4R)-1-((S)-2-((2-(3-(2-(4-((3′-(((4,6-dimethyl-2-oxo-1,2-dihydropyridine-3-yl)methyl)carbamoyl)-5′-(ethyl(tetrahydro-2H-pyran-4-yl)amino)-4′-methyl-[1,1′-biphenyl]-4-yl)methyl)piperazine-1-yl)acetamido)propoxy)ethyl)amino)-3,3-dimethylbutanoyl)-4-hydroxy-N-(4-(4-methylthiazole-5-yl)benzyl)pyrrolidine-2-carboxamide] | D (<25%) | 0% | – | – | – | –
3 | CCN(c1cc(-c2ccc(CN3CCN(C(=O)c4cn(CCCCCNc5cccc6c5C(=O)N(C5CCC(=O)NC5=O)C6=O)nn4)CC3)cc2)cc(C(=O)NCc2c(C)cc(C)[nH]c2=O)c1C)C1CCOCC1 (centres unmarked) [Example 32, N-((4,6-dimethyl-2-oxo-1,2-dihydropyridine-3-yl)methyl)-4′-((4-(1-(5-((2-(2,6-dioxopiperidine-3-yl)-1,3-dioxoisoindoline-4-yl)amino)pentyl)-1H-1,2,3-triazole-4-carbonyl)piperazine-1-yl)methyl)-5-(ethyl(tetrahydro-2H-pyran-4-yl)amino)-4-methyl-[1,1′-biphenyl]-3-carboxamide] | C (25-50%) | 31.67% | – | – | – | –
4 | CCN(c1cc(-c2ccc(CN3CCN(C(=O)CNCCCCCCNc4cccc5c4C(=O)N(C4CCC(=O)NC4=O)C5=O)CC3)cc2)cc(C(=O)NCc2c(C)cc(C)[nH]c2=O)c1C)C1CCOCC1 (centres unmarked) [Example 14, N-((4,6-dimethyl-2-oxo-1,2-dihydropyridine-3-yl)methyl)-4′-((4-((6-((2-(2,6-dioxopiperidine-3-yl)-1,3-dioxoisoindoline-4-yl)amino)hexyl)glycyl)piperazine-1-yl)methyl)-5-(ethyl(tetrahydro-2H-pyran-4-yl)amino)-4-methyl-[1,1′-biphenyl]-3-carboxamide] | D (<25%) | 6.21% | – | – | – | –
5 | CCN(c1cc(-c2ccc(CN3CCN(CC(=O)NCCCOCCCOCC(=O)N[C@H](C(=O)N4C[C@H](O)C[C@H]4C(=O)NCc4ccc(-c5scnc5C)cc4)C(C)(C)C)CC3)cc2)cc(C(=O)NCc2c(C)cc(C)[nH]c2=O)c1C)C1CCOCC1 [Example 42, (2S,4R)-1-((S)-2-(tert-butyl)-16-(4-((3′-(((4,6-dimethyl-2-oxo-1,2-dihydropyridine-3-yl)methyl)carbamoyl)-5′-(ethyl(tetrahydro-2H-pyran-4-yl)amino)-4′-methyl-[1,1′-biphenyl]-4-yl)methyl)piperazine-1-yl)-4,15-dioxo-6,10-dioxa-3,14-diazahexadecanoyl)-4-hydroxy-N-(4-(4-methylthiazole-5-yl)benzyl)pyrrolidine-2-carboxamide] | – | – | – | – | 0% | D (key: A: >75%; B: 50-75%; C: 25-50%; D: <25%)
6 | CCN(c1cc(-c2ccc(CN3CCN(C(=O)c4cn(CCCNc5cccc6c5C(=O)N(C5CCC(=O)NC5=O)C6=O)nn4)CC3)cc2)cc(C(=O)NCc2c(C)cc(C)[nH]c2=O)c1C)C1CCOCC1 (centres unmarked) [Example 25, N-((4,6-dimethyl-2-oxo-1,2-dihydropyridine-3-yl)methyl)-4′-((4-(1-(3-((2-(2,6-dioxopiperidine-3-yl)-1,3-dioxoisoindoline-4-yl)amino)propyl)-1H-1,2,3-triazole-4-carbonyl)piperazine-1-yl)methyl)-5-(ethyl(tetrahydro-2H-pyran-4-yl)amino)-4-methyl[1,1′-biphenyl]-3-carboxamide] | D (<25%) | 7.41% | – | – | – | –
7 | CCN(c1cc(-c2ccc(CN3CCN(C(=O)CNCCNc4cccc5c4C(=O)N(C4CCC(=O)NC4=O)C5=O)CC3)cc2)cc(C(=O)NCc2c(C)cc(C)[nH]c2=O)c1C)C1CCOCC1 (centres unmarked) [Example 12, N-((4,6-dimethyl-2-oxo-1,2-dihydropyridine-3-yl)methyl)-4′-((4-((2-((2-(2,6-dioxopiperidine-3-yl)-1,3-dioxoisoindoline-4-yl)amino)ethyl)glycyl)piperazine-1-yl)methyl)-5-(ethyl(tetrahydro-2H-pyran-4-yl)amino)-4-methyl-[1,1′-biphenyl]-3-carboxamide] | D (<25%) | 16.89% | – | – | – | –
8 | CCN(c1cc(-c2ccc(CN3CCN(CC(=O)NCCCCOc4cccc5c4C(=O)N(C4CCC(=O)NC4=O)C5=O)CC3)cc2)cc(C(=O)NCc2c(C)cc(C)[nH]c2=O)c1C)C1CCOCC1 (centres unmarked) [Example 7, N-((4,6-dimethyl-2-oxo-1,2-dihydropyridine-3-yl)methyl)-4′-((4-(2-((4-((2-(2,6-dioxopiperidine-3-yl)-1,3-dioxoisoindoline-4-yl)oxy)butyl)amino)-2-oxoethyl)piperazine-1-yl)methyl)-5-(ethyl(tetrahydro-2H-pyran-4-yl)amino)-4-methyl-[1,1′-biphenyl]-3-carboxamide] | – | – | – | – | 22.74% | D (key: A: >75%; B: 50-75%; C: 25-50%; D: <25%)
9 | CCN(c1cc(-c2ccc(CN3CCN(CC(=O)NCCCOCCNc4cccc5c4C(=O)N(C4CCC(=O)NC4=O)C5=O)CC3)cc2)cc(C(=O)NCc2c(C)cc(C)[nH]c2=O)c1C)C1CCOCC1 (centres unmarked) [Example 15, N-((4,6-dimethyl-2-oxo-1,2-dihydropyridine-3-yl)methyl)-4′-((4-(2-((3-(2-((2-(2,6-dioxopiperidine-3-yl)-1,3-dioxoisoindoline-4-yl)amino)ethoxy)propyl)amino)-2-oxoethyl)piperazine-1-yl)methyl)-5-(ethyl(tetrahydro-2H-pyran-4-yl)amino)-4-methyl-[1,1′-biphenyl]-3-carboxamide] | D (<25%) | 0% | – | – | – | –
10 | CCN(c1cc(-c2ccc(CN3CCN(CC(=O)NCCOc4cccc5c4C(=O)N(C4CCC(=O)NC4=O)C5=O)CC3)cc2)cc(C(=O)NCc2c(C)cc(C)[nH]c2=O)c1C)C1CCOCC1 (centres unmarked) [Example 5, N-((4,6-dimethyl-2-oxo-1,2-dihydropyridine-3-yl)methyl)-4′-((4-(2-((2-((2-(2,6-dioxopiperidine-3-yl)-1,3-dioxoisoindoline-4-yl)oxy)ethyl)amino)-2-oxoethyl)piperazine-1-yl)methyl)-5-(ethyl(tetrahydro-2H-pyran-4-yl)amino)-4-methyl-[1,1′-biphenyl]-3-carboxamide] | D (<25%) | 0% | – | – | – | –
11 | CCN(c1cc(-c2ccc(CN3CCN(CC(=O)NCCCOCCOc4cccc5c4C(=O)N(C4CCC(=O)NC4=O)C5=O)CC3)cc2)cc(C(=O)NCc2c(C)cc(C)[nH]c2=O)c1C)C1CCOCC1 (centres unmarked) [Example 17, N-((4,6-dimethyl-2-oxo-1,2-dihydropyridine-3-yl)methyl)-4′-((4-(2-((3-(2-((2-(2,6-dioxopiperidine-3-yl)-1,3-dioxoisoindoline-4-yl)oxy)ethoxy)propyl)amino)-2-oxoethyl)piperazine-1-yl)methyl)-5-(ethyl(tetrahydro-2H-pyran-4-yl)amino)-4-methyl-[1,1′-biphenyl]-3-carboxamide] | – | – | – | – | 3.25% | D (key: A: >75%; B: 50-75%; C: 25-50%; D: <25%)
12 | CCN(c1cc(-c2ccc(CN3CCN(CC(=O)NCCN4CCN(CCNc5cccc6c5C(=O)N(C5CCC(=O)NC5=O)C6=O)CC4)CC3)cc2)cc(C(=O)NCc2c(C)cc(C)[nH]c2=O)c1C)C1CCOCC1 (centres unmarked) [Example 29, N-((4,6-dimethyl-2-oxo-1,2-dihydropyridine-3-yl)methyl)-4′-((4-(2-((2-(4-(2-((2-(2,6-dioxopiperidine-3-yl)-1,3-dioxoisoindoline-4-yl)amino)ethyl)piperazine-1-yl)ethyl)amino)-2-oxoethyl)piperazine-1-yl)methyl)-5-(ethyl(tetrahydro-2H-pyran-4-yl)amino)-4-methyl-[1,1′-biphenyl]-3-carboxamide] | D (<25%) | 0% | – | – | – | –
13 | CCN(c1cc(-c2ccc(CN3CCN(C(=O)c4cn(CCCCC(=O)N[C@H](C(=O)N5C[C@H](O)C[C@H]5C(=O)NCc5ccc(-c6scnc6C)cc5)C(C)(C)C)nn4)CC3)cc2)cc(C(=O)NCc2c(C)cc(C)[nH]c2=O)c1C)C1CCOCC1 [Example 48, (2S,4R)-1-((S)-2-(5-(4-(4-((3′-(((4,6-dimethyl-2-oxo-1,2-dihydropyridine-3-yl)methyl)carbamoyl)-5′-(ethyl(tetrahydro-2H-pyran-4-yl)amino)-4′-methyl-[1,1′-biphenyl]-4-yl)methyl)piperazine-1-carbonyl)-1H-1,2,3-triazole-1-yl)pentanamido)-3,3-dimethylbutanoyl)-4-hydroxy-N-(4-(4-methylthiazole-5-yl)benzyl)pyrrolidine-2-carboxamide] | D (<25%) | 5.74% | – | excellent effects | – | –
